Experimental data reported in ChEMBL document CHEMBL1157739, “5'-O-dephosphorylated 2',5'-oligoadenylate (2-5A) with 8-methyladenosine at the 2'-terminus activates human RNase L” (Bioorg Med Chem Lett, 2010).
The source made the active and inactive calls. The rule behind the calls is not given here.

Experiments:
[1] = target: T1, 2-5A-dependent ribonuclease (Homo sapiens) (UniProt Q05823); assay: […] of human RNaseL ANK domain expressed in Escherichia col assessed as 5' flurescein-r(C11U2C7)-3' RNA cleavage relative to control; design: concentration or dose not given beside the values
T1 sequence (whole entry): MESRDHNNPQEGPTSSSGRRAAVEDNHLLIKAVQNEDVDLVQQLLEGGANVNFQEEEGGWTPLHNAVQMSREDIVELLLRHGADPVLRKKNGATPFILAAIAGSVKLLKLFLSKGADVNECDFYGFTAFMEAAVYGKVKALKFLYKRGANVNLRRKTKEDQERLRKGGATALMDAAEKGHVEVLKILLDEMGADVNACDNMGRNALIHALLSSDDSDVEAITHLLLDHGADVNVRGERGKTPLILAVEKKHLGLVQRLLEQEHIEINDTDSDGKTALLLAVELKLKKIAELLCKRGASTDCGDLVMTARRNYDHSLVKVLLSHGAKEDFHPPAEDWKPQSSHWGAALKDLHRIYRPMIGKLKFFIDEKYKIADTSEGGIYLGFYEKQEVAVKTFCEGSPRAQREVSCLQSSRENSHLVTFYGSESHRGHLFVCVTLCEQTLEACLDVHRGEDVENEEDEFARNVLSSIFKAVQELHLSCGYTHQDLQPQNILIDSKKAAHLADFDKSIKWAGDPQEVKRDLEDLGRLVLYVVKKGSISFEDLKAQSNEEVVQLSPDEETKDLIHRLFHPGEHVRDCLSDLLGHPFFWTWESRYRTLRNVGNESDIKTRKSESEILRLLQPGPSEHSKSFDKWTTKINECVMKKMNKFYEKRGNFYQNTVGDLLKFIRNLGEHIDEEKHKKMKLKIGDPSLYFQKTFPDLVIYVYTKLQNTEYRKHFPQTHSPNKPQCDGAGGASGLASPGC

[2] = Stability assessed as half life; assay type: physicochemical
[3] = target: T2, 2-5A-dependent ribonuclease (Homo sapiens, UniProt Q05823); assay: […] of human RNaseL ANK domain expressed in Escherichia coli assessed as 5' flurescein-r(C11U2C7)-3' RNA cleavage
T2 sequence (Q05823 whole entry): T1 sequence (whole entry)

| SMILES | Activity [1] | half-life [2] [min] | EC50 ([3]; read-out: EC50) [nM] | EC50 [3] |
| --- | --- | --- | --- | --- |
| Cc1nc2c(N)ncnc2n1[C@@H]1O[C@H](COP(=O)(O)O[C@@H]2[C@H](O)[C@@H](COP(=O)(O)O[C@@H]3[C@H](O)[C@@H](COP(=O)(O)O[C@@H]4[C@H](O)[C@@H](CO)O[C@H]4n4cnc5c(N)ncnc54)O[C@H]3n3cnc4c(N)ncnc43)O[C@H]2n2cnc3c(N)ncnc32)[C@@H](O)[C@H]1O | 3.9% | > 90 | 2.5 | – |
| Cc1nc2c(N)ncnc2n1[C@@H]1O[C@H](COP(=O)(O)O[C@@H]2[C@H](O)[C@@H](COP(=O)(O)O[C@@H]3[C@H](O)[C@@H](CO)O[C@H]3n3cnc4c(N)ncnc43)O[C@H]2n2cnc3c(N)ncnc32)[C@@H](O)[C@H]1O | < 0.19% | 18 | > 50 | – |
| Nc1ncnc2c1ncn2[C@@H]1O[C@H](COP(=O)(O)O[C@@H]2[C@H](O)[C@@H](COP(=O)(O)O[C@@H]3[C@H](O)[C@@H](COP(=O)(O)O[C@@H]4[C@H](O)[C@@H](COP(=O)(O)O)O[C@H]4n4cnc5c(N)ncnc54)O[C@H]3n3cnc4c(N)ncnc43)O[C@H]2n2cnc3c(N)ncnc32)[C@@H](O)[C@H]1O | 1% | 14 | 9.7 | – |
| Nc1ncnc2c1ncn2[C@@H]1O[C@H](COP(=O)(O)O[C@@H]2[C@H](O)[C@@H](COP(=O)(O)O[C@@H]3[C@H](O)[C@@H](COP(=O)(O)O[C@@H]4[C@H](O)[C@@H](CO)O[C@H]4n4cnc5c(N)ncnc54)O[C@H]3n3cnc4c(N)ncnc43)O[C@H]2n2cnc3c(N)ncnc32)[C@@H](O)[C@H]1O | inactive | 18 | – | Not Active |
| Cc1nc2c(N)ncnc2n1[C@@H]1O[C@H](COP(=O)(O)O[C@@H]2[C@H](O)[C@@H](COP(=O)(O)O[C@@H]3[C@H](O)[C@@H](CO)O[C@H]3n3cnc4c(N)ncnc43)O[C@H]2n2cnc3c(N)ncnc32)[C@@H](O)[C@H]1OP(=O)(O)OC[C@H]1O[C@@H](n2cnc3c(N)ncnc32)[C@H](O)[C@@H]1O | < 0.19% | 18 | > 50 | – |
| Cc1nc2c(N)ncnc2n1[C@@H]1O[C@H](COP(=O)(O)O[C@@H]2[C@H](O)[C@@H](COP(=O)(O)O[C@@H]3[C@H](O)[C@@H](COP(=O)(O)O[C@@H]4[C@H](O)[C@@H](COP(=O)(O)O)O[C@H]4n4cnc5c(N)ncnc54)O[C@H]3n3cnc4c(N)ncnc43)O[C@H]2n2cnc3c(N)ncnc32)[C@@H](O)[C@H]1O | 3.9% | – | 2.5 | – |
